Measured values: patent US8163791B2, “Imidazole derivatives that induce apoptosis and their therapeutic uses” (Industry-Academic Cooperation Foundation, Yonsei University, priority 2007, dated 2012)

How the values were obtained:
Jurkat human lymphocytes [1] = assay: Suppression of PHA-induced homotypic aggregation in lymphocytes; format: cell-based; conditions: FIG. 3 legend; PHA 10 μg/mL
Protocol: (§1) FIG. 3. Suppression of TNF-α and PHA-induced human lymphocyte activation by Apoptozole 1. (A) Jurkat human lymphocytes are treated with various concentrations of Apoptozole 1 for 1 h and then are activated by incubation with 10 ng/mL of TNF-α for 1 h to induce uropod formation. The formed uropod is determined by microscopic analysis of groups of cells. (B) Lymphocytes treated with TNF-α (10 ng/mL) for 48 h are incubated with various concentrations of Apoptozole 1 for 24 h. Cell number is measured by CyQuant kit. (C) Jurkat human lymphocytes are incubated with various concentrations of Apoptozole 1 for 1 h and then with 10 μg/mL PHA for 1 h to induce cell aggregation. Cell aggregates are counted in 40× fields of view determined randomly.
(§2) Lymphocyte activation leads to the formation of a uropod in the rear pole during cell polarization and cell proliferation. Jurkat lymphocytes are incubated with various concentrations of Apoptozoles for 1 h and the treated cells are then activated by treatment with TNF-α for 1 h. Apoptozoles reduce the uropod formation induced by TNF-α by 45% in comparison with cells treated only with TNF-α. […]
For homotypic aggregation studies, lymphocytes are seeded in 6-well plates at a density of 2×10^4 cells/mL and treated with various concentrations (0-100 nM) of Az for 1 h. […] Cell aggregates are counted in 40× fields of view determined randomly.

[2] = system: ΔF508-CFTR in CFPAC-1 cells; assay: Detection of ΔF508-CFTR expression on the cell membrane (immunostaining without permeabilization); format: cell-based, human; conditions: 100 nM, 24 h
Protocol: FIG. 4. Intracellular trafficking of misfolded ΔF508-CFTR by Apoptozole 1. (A) Capan-1 cells expressing normal CFTR display intense fluorescence in a characteristic ring structure that is indicative of cell membrane labeling. (B) CFPAC-1 cells expressing ΔF508-CFTR show little or no fluorescent signal at the cell surface, due to degradation ΔF508-CFTR by interacting with Hsc70 in the proteosome pathway. […] Immunostaining for CFTR is carried out using standard methods without cell permeabilization to allow CFTR detection on the cell surface.
The other embodiment of the present invention provides translocation methods of mutant CFTR (cystic fibrosis transmembrane conductance regulator) to treat cystic fibrosis. Hsc70 assists the degradation of misfolded proteins in the ER (Nature 1996, 381, 571-579 Cell 1998, 92, 351-366 Science 1999, 286, 1888-1893). Cystic fibrosis is a disease caused by removal of mutant CFTR in the ER. The most common mutation of CFTR is the deletion of phenylalanine-508 in CFRT (ΔF508-CFRT). […] When Capan-1 cells are immunostained with anti-CFTR antibody, intense fluorescence is observed in the cell membrane. […]
Capan-1 and CFPAC-1 cells are grown on Permanox slides (Fisher Scientific) for 24 h and treated with 1 mM 4-PBA and 100 nM Az for 24 h. […] The slides were analyzed using a fluorescence microscope (Nikon Eclipse TE2000).

Jurkat human lymphocytes [3] = assay: Suppression of TNF-α-induced uropod formation in lymphocytes; format: cell-based; conditions: FIG. 3 legend; TNF-α 10 ng/mL
Protocol: as §1, §2
Jurkat human lymphocytes are seeded in 6-well plates at a density of 10^3 cells/mL in 5% FBS in order to reduce the propensity for spontaneous uropod formation. […] The formed uropod is determined by microscopic analysis of groups of cells.

COc1ccc(-c2nc(-c3cc(C(F)(F)F)cc(C(F)(F)F)c3)n(Cc3ccc(C(N)=O)cc3)c2-c2ccc(OC)cc2)cc1 [Apoptozole 1, 4-2-[3,5-bis(trifluoromethyl)phenyl]-4,5-bis(4-methoxphenyl)imidazol-1-yl-methyl-benzamide]
PHA-induced human lymphocyte activation (Jurkat human lymphocytes [1]): Suppression | expression of ΔF508-CFTR on the cell membrane [2]: inhibits Hsc70-mediated degradation of the ΔF508-CFTR | TNF-α-induced human lymphocyte activation (Jurkat human lymphocytes [3]): Suppression
